Experimental data as given in patent US20050020630A1, “Cycloalkyl and heterocycloalkyl substituted benzothiophenes as therapeutic agents” (priority 2003, published 2005).

What follows are compounds tested against T1, PI3Kγ (Homo sapiens, UniProt P48736) (assay: PI3Kγ In Vitro Kinase Assay). Conditions: purified recombinant p101/p110 γ protein with G protein β1/γ2 subunits; 20 μM ATP, 25 μM PIP2; 20 minutes at room temperature; radioactive PIP3 readout.
T1 construct: HA; made in house; host or cells: Spodoptera frugiperda (Sf9) cells, baculovirus co-infection
T1 sequence (P48736 whole entry, species assumed): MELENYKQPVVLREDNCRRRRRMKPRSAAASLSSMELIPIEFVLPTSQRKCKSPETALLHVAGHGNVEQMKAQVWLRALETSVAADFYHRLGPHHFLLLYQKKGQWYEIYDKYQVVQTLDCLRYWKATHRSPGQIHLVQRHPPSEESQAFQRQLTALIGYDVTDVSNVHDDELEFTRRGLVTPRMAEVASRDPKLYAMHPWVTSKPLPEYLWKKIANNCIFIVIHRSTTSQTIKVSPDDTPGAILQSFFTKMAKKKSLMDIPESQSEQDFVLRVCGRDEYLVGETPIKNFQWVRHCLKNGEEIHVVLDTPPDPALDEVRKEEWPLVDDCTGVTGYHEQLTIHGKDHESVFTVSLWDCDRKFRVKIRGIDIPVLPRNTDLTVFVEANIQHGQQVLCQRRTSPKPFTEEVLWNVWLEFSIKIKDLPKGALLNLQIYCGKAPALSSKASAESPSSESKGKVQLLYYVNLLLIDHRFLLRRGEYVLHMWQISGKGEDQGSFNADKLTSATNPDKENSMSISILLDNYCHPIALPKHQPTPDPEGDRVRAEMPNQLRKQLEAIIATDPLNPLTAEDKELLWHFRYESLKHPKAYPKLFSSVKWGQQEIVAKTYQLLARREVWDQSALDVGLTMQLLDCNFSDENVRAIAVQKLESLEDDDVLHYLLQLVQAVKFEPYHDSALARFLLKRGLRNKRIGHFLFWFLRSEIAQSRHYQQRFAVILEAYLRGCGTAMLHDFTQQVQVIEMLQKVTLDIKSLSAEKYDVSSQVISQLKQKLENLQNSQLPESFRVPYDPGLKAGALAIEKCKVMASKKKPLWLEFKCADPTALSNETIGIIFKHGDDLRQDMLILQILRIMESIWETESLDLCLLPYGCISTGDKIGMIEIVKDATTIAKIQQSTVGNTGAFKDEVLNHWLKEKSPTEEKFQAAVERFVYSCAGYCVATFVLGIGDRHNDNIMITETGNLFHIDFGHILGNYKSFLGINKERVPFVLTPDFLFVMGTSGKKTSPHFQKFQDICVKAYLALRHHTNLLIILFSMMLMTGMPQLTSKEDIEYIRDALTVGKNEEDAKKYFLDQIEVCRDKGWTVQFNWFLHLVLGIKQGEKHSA
T1 sequence (Q8WYR1 whole entry partner, species assumed): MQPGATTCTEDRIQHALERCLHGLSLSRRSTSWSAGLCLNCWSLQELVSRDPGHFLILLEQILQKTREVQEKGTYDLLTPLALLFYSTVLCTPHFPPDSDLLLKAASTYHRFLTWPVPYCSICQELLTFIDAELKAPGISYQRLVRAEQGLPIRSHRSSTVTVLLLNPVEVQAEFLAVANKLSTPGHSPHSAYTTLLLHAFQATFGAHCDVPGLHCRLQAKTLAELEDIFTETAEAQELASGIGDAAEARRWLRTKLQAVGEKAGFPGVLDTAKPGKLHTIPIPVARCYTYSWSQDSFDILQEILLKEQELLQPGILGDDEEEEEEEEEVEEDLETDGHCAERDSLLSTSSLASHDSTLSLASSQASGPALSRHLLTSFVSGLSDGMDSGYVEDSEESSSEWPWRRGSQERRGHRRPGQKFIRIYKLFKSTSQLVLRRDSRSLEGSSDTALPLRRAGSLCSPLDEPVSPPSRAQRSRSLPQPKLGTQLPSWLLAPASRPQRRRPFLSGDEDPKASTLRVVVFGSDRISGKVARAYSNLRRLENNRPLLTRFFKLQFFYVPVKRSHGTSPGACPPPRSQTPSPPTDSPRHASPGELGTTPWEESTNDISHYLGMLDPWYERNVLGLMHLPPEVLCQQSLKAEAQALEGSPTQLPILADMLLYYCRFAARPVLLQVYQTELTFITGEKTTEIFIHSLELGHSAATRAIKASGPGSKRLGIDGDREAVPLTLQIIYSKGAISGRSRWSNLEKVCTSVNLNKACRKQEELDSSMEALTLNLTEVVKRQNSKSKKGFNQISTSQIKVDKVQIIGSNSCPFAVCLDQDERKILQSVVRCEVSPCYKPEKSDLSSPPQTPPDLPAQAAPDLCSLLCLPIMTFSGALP
Type: biochemical
Procedure: Spodtera frugiperda cells, grown in ESF921 media, were coinfected with baculovirus expressing a glu-tagged p101 and baculovirus expressing an HA-tagged p110γ, at a 3:1 ratio of p101 baculovirus to p110γ baculovirus. Sf9 cells were grown to 1×10^7 total cells/mL in 10 L bioreactors and harvested 48-72 hours post infection. Samples of infected cells were then tested for expression of p101/p110 γ PI3 kinase by immunoprecipitation and Western Blot analysis methods (see below). To purify PI3Kγ, 4 volumes of room temperature hypotonic lysis buffer (1 mM MgCl2, 1 mM DTT, 5 mM EGTA, 1 mM Pefabloc, 0.5 μM aprotinin, 5 μM leupeptin, 2 μM pepstatin, 5 μM E64, pH 8) per gram of cell paste, was poured onto frozen cell pellets with stirring, then lysed in a nitrogen “bomb” at 400 psi (599HC […], Parr Instrument Co, Moline, Ill.). NaCl was added to 150 mM, and sodium cholate was added to 1% and mixed for another 45 minutes. The lysates were clarified by centrifugation for 25 minutes at 14,000 rpm. The lysates were then loaded over anti-glu-linked Protein-G Sepaharose beads (Covance Research Products, Richmond, Calif.) using 20 mL resin/50 g cell paste. The column was washed with 15 volumes of wash buffer (1 mM DTT, 0.2 mM EGTA, 1 mM Pefabloc, 0.5 μM aprotinin, 5 μM leupeptin, 2 μM pepstatin, 5 μM E64, 150 mM NaCl, 1% sodium cholate, pH 8). PI3Kγ was eluted with 6 column volumes of wash buffer that contain 100 μg/mL of a peptide that competes for binding of the glu tag. The column fractions with the eluted protein (determined by taking OD280 readings) were collected and dialyzed in 0.2 mM EGTA, 1 mM DTT, 1 mM Pefabloc, 5 μM leupeptin, 0.5% sodium cholate, 150 mM NaCl, and 50% glycerol, pH 8. The fractions were stored at -80° C. until further use. Spodtera frugiperda cells were coinfected with baculovirus expressing a glu-tagged G protein β1 and baculovirus expressing a G protein β2, at a 1:1 ratio of glu-tagged G protein β1 baculovirus to G protein β2 baculovirus. Sf9 cells are grown in 10 L bioreactors and harvested 48-72 hours post infection. Samples of infected cells were tested for G protein β1/β2 expression by Western Blot analysis, as described below. Cell lysates were homogenized and loaded onto a column of glu-tagged beads as in Biological Example 1 and competed off the column with a glu peptide and processed as described in Biological Example 1. The inhibitory properties of the compounds in Table 1 were assayed in an in vitro PI3K assay. In a 96-well polypropylene plate, each well was spotted with 2 μL of 50 times the desired final concentration of compound in DMSO. Purified recombinant p101/p110 γ protein (0.03 μg; 2.7 nM) and G protein β1/γ2 subunits (0.09 μg; 57.7 nM) for each reaction was combined in the assay buffer (30 mM HEPES, 100 mM NaCl, 1 mM EGTA, and 1 mM DTT). ATP and [γ-^32P-ATP] (0.09 μCi) were added to this mixture so that the final ATP concentration in the reaction was 20 μM. Lipid micelles were formed by sonicating phosphatidylinositol-4,5-diphosphate (PIP2), phosphatidylethanolamine (PE), and Na-cholate in the assay buffer for 10 minutes, adding MgCl2 and incubating on ice for 20 minutes, for final concentrations of 25 μM PIP2, 300 μM PE, 0.02% Na-cholate, and 10 mM MgCl2 in the reaction. The reactions were started by adding equal volumes lipid and enzyme mixture in a total volume of 50 μL, allowed to run for 20 minutes at room temperature, and stopped with 100 μL 75 mM H3PO4. The lipid product was transferred to a glass fiber filter plate and washed with 75 mM H3PO4 several times. The presence of radioactive lipid product (PIP3) was measured by adding Wallac Optiphase mix to each well and counting in a Wallac 1450 Trilux plate reader (PerkinElmer Life Sciences Inc., Boston, Mass. 02118). The IC50 for each compound tested is reported in μM in Table 1: […]
With “3-(3,5-Dimethyl-cyclohexloxy)-5,6-dimethoxy-benzo[b]thiophene-2-carboxylic acid (1H-tetrazol-5-yl)-amide [Example 34]” the IC50 was 32 nM. “3-Cycloheptylmethoxy-5,6-dimethoxy-benzo[b]thiophene-2-carboxylic acid (1H-tetrazol-5-yl)-amide [Example 42]” showed an IC50 of 36 nM. Compound “5,6-Dimethoxy-3-(3-methyl-oxetan-3-ylmethylmethoxy)-benzo[b]thiophene-2-carboxylic acid (1H-tetrazol-5-yl)-amide [Example 25]” has an IC50 of 445 nM. In the case of `COc1cc2c(OC3CCCC(C)C3)c(C(=O)Nc3nn[nH]n3)sc2cc1C` (single isomer, unassigned) [Example 2, 5-Methoxy-6-methyl-3-(3-methyl-cyclohexyloxy)-benzo[b]thiophene-2-carboxylic acid (2H-tetrazol-5-yl)-amide], the IC50 is reported as 24 nM. For `COc1cc2c(OC3CCCC(C)C3)c(C(=O)Nc3nn[nH]n3)sc2cc1C` (single isomer, unassigned) [Example 7, 5-Methoxy-6-methyl-3-(3-methyl-cyclohexyloxy)-benzo[b]thiophene-2-carboxylic acid (2H-tetrazol-5-yl)-amide], the IC50 was 3 nM. With `COc1cc2c(OC3CCOCC3)c(C(=O)Nc3nn[nH]n3)sc2cc1C` [Example 1, 5-Methoxy-6-methyl-3-(tetrahydro-pyran-4-yloxy)-benzo[b]thiophene-2-carboxylic acid (2H-tetrazol-5-yl)-amide] the IC50 was 24 nM. `COc1cc2c(OC3CC(C)(C)CC(C)(C)C3)c(C(=O)Nc3nn[nH]n3)sc2cc1C` [Example 3, 5-Methoxy-6-methyl-3-(3,3,5,5-tetramethyl-cyclohexyloxy)-benzo[b]thiophene-2-carboxylic acid (2H-tetrazol-5-yl)-amide] was tested, and the IC50 was 165 nM. Compound `COc1cc2c(OC3CC(C)CC(C)(C)C3)c(C(=O)Nc3nn[nH]n3)sc2cc1C` (stereo not drawn) [Example 4, 5-Methoxy-6-methyl-3-(3,3,5-trimethyl-cyclohexyloxy)-benzo[b]thiophene-2-carboxylic acid (2H-tetrazol-5-yl)-amide] has an IC50 of 9 nM. Compound `COc1cc2c(OC3CCCC(C)(C)C3)c(C(=O)Nc3nn[nH]n3)sc2cc1C` (stereo not drawn) [Example 5, 3-(3,3-Dimethyl-cyclohexyloxy)-5-methoxy-6-methyl-benzo[b]thiophene-2-carboxylic acid (2H-tetrazol-5-yl)-amide] has an IC50 of 8 nM. With `COc1cc2c(OC3CCCCC3)c(C(=O)Nc3nn[nH]n3)sc2cc1C` [Example 6, 3-Cyclohexyloxy-5-methoxy-6-methyl-benzo[b]thiophene-2-carboxylic acid (2H-tetrazol-5-yl)-amide] the IC50 was 7 nM. For `COc1cc2c(OC3CCCCCC3)c(C(=O)Nc3nn[nH]n3)sc2cc1C` [Example 8, 3-Cycloheptyloxy-5-methoxy-6-methyl-benzo[b]thiophene-2-carboxylic acid (2H-tetrazol-5-yl)-amide], the IC50 was 5 nM. `COc1cc2c(OC3CCN(Cc4ccccc4)CC3)c(C(=O)Nc3nn[nH]n3)sc2cc1C` [Example 9, 3-(1-Benzyl-piperidin-4-yloxy)-5-methoxy-6-methyl-benzo[b]thiophene-2-carboxylic acid (2H-tetrazol-5-yl)-amide] gave an IC50 of 250 nM. `COc1cc2c(OC3CCCNC3)c(C(=O)Nc3nn[nH]n3)sc2cc1C` (stereo not drawn) [Example 10] was tested, and the IC50 was 1290 nM. `COc1cc2c(OC3CCN(C4CCCCC4)CC3)c(C(=O)Nc3nn[nH]n3)sc2cc1C` [Example 11, 3-(1-Cyclohexyl-piperdin-4-yloxy)-5-methoxy-6-methyl-benzo[b]thiophene-2-carboxylic acid (2H-tetrazol-5-yl-amide)] showed an IC50 of 965 nM. Work on `COc1cc2c(OC3CCNCC3)c(C(=O)Nc3nn[nH]n3)sc2cc1C` [Example 12, 5-Methoxy-6-methyl-3-(piperidiny-4yloxy)-benzo[b]thiophene-2-carboxylic acid (2H-tetrazol-5-yl)amide] yielded an IC50 of 715 nM. Compound `COc1cc2c(OC3CCCN(C(C)=O)C3)c(C(=O)Nc3nn[nH]n3)sc2cc1C` (stereo not drawn) [Example 13, 3-(1-Acetyl-piperidin-3-yloxy)-5-methyoxy-6-methyl-benzo[b]thiophene-2-carboxylic acid (2H-tetrazol-5-yl)-amide] has an IC50 of 72 nM. Work on `COc1cc2c(OC3CCCN(C(=O)OC(C)(C)C)C3)c(C(=O)Nc3nn[nH]n3)sc2cc1C` (stereo not drawn) [Example 14] yielded an IC50 of 53 nM. With `COc1cc2c(OCCCC3CCCCC3)c(C(=O)Nc3nn[nH]n3)sc2cc1C` [Example 15, 3-(3-Cyclohexyl-propoxy)-5-Methoxy-6-methyl-benzo[b}thiophene-2-carboxylic acid (2H-tetrazol-5-yl)amide] the IC50 was 28 nM. Work on `COc1cc2c(OC3CCN(C(C)=O)CC3)c(C(=O)Nc3nn[nH]n3)sc2cc1C` [Example 16, 3-(1-Acetyl-piperidin-4-yloxy)-5-methoxy-6-methyl-benzo[b]thiophene-2-carboxylic acid (2H-tetrazol-5-yl)-amide] yielded an IC50 of 25 nM. With `COc1cc2c(OC3CCN(C(=O)OC(C)(C)C)CC3)c(C(=O)Nc3nn[nH]n3)sc2cc1C` [Example 17, 4-[5-Methoxy-6-methyl-2-(2H-tetrazol-5-ylcarbamoyl)-benzo[b]thiophene-3-yloxy]-piperidine-1-carboxylic acid tert-butyl ester] the IC50 was 24 nM. `COc1cc2c(OCC3(C)CC3)c(C(=O)Nc3nn[nH]n3)sc2cc1C` [Example 18, 5-Methoxy-6-methyl-3-(1-methyl-cyclopropylmethoxy)-benzo[b]thiophene-2-carboxylic acid (2H-tetrazol-5-yl)-amide] gave an IC50 of 20 nM. `COc1cc2sc(C(=O)Nc3nnn[nH]3)c(OCCC3CC3)c2cc1OC` [Example 19, 3-(2-Cyclopropyl-ethoxy)-5,6-dimethoxy-benzo[b]thiophene-2-carboxylic acid (1H-tetrazol-5-yl)-amide] gave an IC50 of 371 nM. For `COc1cc2sc(C(=O)Nc3nn[nH]n3)c(OCC3CC3(Cl)Cl)c2cc1OC` (stereo not drawn) [Example 20, 3-(2,2-Dichloro-cyclopropylmethoxy)-5,6-dimethoxy-benzo[b]thiophene-2-carboxylic acid (2H-tetrazol-5-yl)-amide], the IC50 was 453 nM. With `COc1cc2sc(C(=O)Nc3nnn[nH]3)c(OCC3CCCCC3)c2cc1OC` [Example 21, 3-Cyclohexylmethoxy-5,6-dimethoxy-benzo[b]thiophene-2-carboxylic acid (1H-tetrazol-5-yl)-amide] the IC50 was 195 nM. For `COc1cc2sc(C(=O)Nc3nn[nH]n3)c(OC3CCCCC3)c2cc1OC` [Example 22, 3-Cyclohexyloxy-5,6-dimethoxy-benzo[b]thiophene-2-carboxylic acid (2H-tetrazol-5-yl)-amide], the IC50 was 34 nM. With `COc1cc2sc(C(=O)Nc3nn[nH]n3)c(OC3CCC(C(C)(C)C)CC3)c2cc1OC` (stereo not drawn) [Example 23, 3-(4-tert-Butyl-cyclohexyloxy)-5,6-dimethoxy-benzo[b]thiophene-2-carboxylic acid (2H-tetrazol-5-yl)-amide] the IC50 was 56 nM. `COc1cc2sc(C(=O)Nc3nnn[nH]3)c(OC3CC(C)CC(C)C3)c2cc1OC` (stereo not drawn) [Example 24, 3-(3,5-dimethyl-cyclohexyloxy)-5,6-dimethoxy-benzo[b]thiophene-2-carboxylic acid (2H-tetrazol-5-yl)-amide] gave an IC50 of 103 nM.
